Measurements published in patent publication US8618289B2 (Ambit Biosciences Corporation, priority 2008, dated 2013).
Where a name gives a salt, the structure may show the parent alone.

Columns and labels:
[1] = target: RAF kinases (Homo sapiens, UniProt P15056); assay: biochemical
Method: Competition binding assays used herein were developed, validated and performed as described in Fabian et al., Nature Biotechnology 2005, 23, 329-336. […] The liganded beads were blocked with excess biotin and washed with blocking buffer (SeaBlock (Pierce), 1% BSA, 0.05% Tween 20, 1 mM DTT) to remove unbound ligand and to reduce non-specific binding. […] Test compounds were prepared as 100× stocks in DMSO and rapidly diluted into the aqueous environment. DMSO was added to control assays lacking a test compound. Primary screen interactions were performed in polypropylene 384-well plates in a final volume of 34 μt, while Kd determinations were performed in polystyrene 96-well plates in a final volume of 135 pt. […] The kinase concentration in the eluates was measured by quantitative PCR. Each kinase was tested individually against each compound. Kds were determined using eleven serial threefold dilutions. A selectivity score, which is a quantitative measure of selectivity of a compound against a panel of enzymes, may be calculated for a compound by dividing the number of enzymes for which a compound meets a set criteria, (for example, a binding constant of 100 nM or less), by the total number of enzymes tested. […] (Note, for those compounds tested in a larger kinase panel, as indicated by an asterisk (*) next to the S35 score, the divisor is 321 (i.e. the larger panel contains 321 distinct kinases, excluding mutant variants.)).

[2] = system: MEK1 phosphorylation in the A375 human melanoma cell line; assay: cells; details: A-375, read-out: pMEK IC50
[3] = system: A375 cells; assay: cells; details: Homo sapiens, A-375, read-out: A375 Viability EC50

Chain of RAF kinases (P15056 whole entry): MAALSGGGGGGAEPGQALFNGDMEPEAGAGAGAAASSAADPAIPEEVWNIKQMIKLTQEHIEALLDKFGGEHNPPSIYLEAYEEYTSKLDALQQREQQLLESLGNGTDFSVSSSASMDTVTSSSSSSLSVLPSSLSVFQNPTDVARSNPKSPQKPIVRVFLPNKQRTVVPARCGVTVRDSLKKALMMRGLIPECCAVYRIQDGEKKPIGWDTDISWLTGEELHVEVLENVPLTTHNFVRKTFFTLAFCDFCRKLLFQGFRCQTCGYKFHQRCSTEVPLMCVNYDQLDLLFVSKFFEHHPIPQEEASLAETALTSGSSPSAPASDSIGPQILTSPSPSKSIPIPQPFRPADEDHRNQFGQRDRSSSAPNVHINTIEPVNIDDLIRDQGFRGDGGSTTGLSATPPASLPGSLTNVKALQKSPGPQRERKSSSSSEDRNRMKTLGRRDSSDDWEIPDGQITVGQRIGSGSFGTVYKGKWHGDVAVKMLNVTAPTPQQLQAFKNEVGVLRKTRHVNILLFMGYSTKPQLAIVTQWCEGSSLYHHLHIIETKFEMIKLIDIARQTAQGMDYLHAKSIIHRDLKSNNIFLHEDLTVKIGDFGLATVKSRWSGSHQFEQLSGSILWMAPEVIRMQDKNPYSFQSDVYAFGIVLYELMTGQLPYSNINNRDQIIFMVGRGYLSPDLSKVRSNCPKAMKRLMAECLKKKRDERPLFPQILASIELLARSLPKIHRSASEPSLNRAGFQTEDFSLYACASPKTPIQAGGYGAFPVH

IC50 [2]	EC50 [3]	SMILES	Kd [1]
< 250 nM	250 to 500 nM	COc1cc2ncnc(Oc3cccc(NC(=O)Nc4cc(C(C)(C)C)on4)c3)c2cc1O[C@H]1CCN(C)C1 [Ex 109, (S)-1-(5-tert-butylisoxazol-3-yl)-3-(3-(7-methoxy-6-(1-methylpyrrolidin-3-yloxy)quinazolin-4-yloxy)phenyl)urea]	–
250 to 500 nM	> 1000 nM	COc1cc2ncnc(Oc3cccc(NC(=O)Nc4cccc(C(C)(C)C)c4)c3)c2cc1OC [Ex 118, 1-(3-tert-butylphenyl)-3-(3-(6,7-dimethoxyquinazolin-4-yloxy)phenyl)urea]	250 to 500 nM
250 to 500 nM	> 1000 nM	COCCOc1cc2ncnc(Oc3cccc(NC(=O)Nc4ccc(OC)c(C(F)(F)F)c4)c3)c2cc1OC [Ex 139, 1-(4-methoxy-3-(trifluoromethyl)phenyl)-3-(3-(6-methoxy-7-(2-methoxyethoxy)quinazolin-4-yloxy)phenyl)urea]	–
< 250 nM	500 to 1000 nM	COc1cc2ncnc(Sc3cccc(NC(=O)Nc4cc(C(F)(F)F)nn4C)c3)c2cc1OC [Ex 193, 1-[3-(6,7-dimethoxyquinazolin-4-ylthio)phenyl]-3-[1-methyl-3-(trifluoromethyl)-1H-pyrazol-5-yl]urea]	–
250 to 500 nM	> 1000 nM	COc1cc2ncnc(Oc3cccc(NC(=O)Nc4cc(C5(C)CC5)on4)c3)c2cc1OC [Ex 127, 1-(3-(6,7-dimethoxyquinazolin-4-yloxy)phenyl)-3-(5-(1-methylcyclopropyl)isoxazol-3-yl)urea]	–
250 to 500 nM	500 to 1000 nM	COc1cc2ncnc(Oc3cccc(NC(=O)Nc4cc(C(F)(F)F)n(C)n4)c3)c2cc1OC [Ex 165, 1-[3-(6,7-dimethoxyquinazolin-4-yloxy)phenyl]-3-[1-methyl-5-(trifluoromethyl)-1H-pyrazol-3-yl]urea]	–
> 1000 nM	> 1000 nM	COc1cc2ncnc(Oc3cccc(NC(=O)Nc4cc(C5CC5)no4)c3)c2cc1OC [Ex 124, 1-(3-cyclopropylisoxazol-5-yl)-3-(3-(6,7-dimethoxyquinazolin-4-yloxy)phenyl)urea]	–
< 250 nM	< 250 nM	COc1cc2ncnc(Oc3cccc(NC(=O)Nc4cc(C(C)(C)C)on4)c3)c2cc1OCCCN1CCOCC1 [Ex 22, 1-(5-tert-butylisoxazol-3-yl)-3-(3-(7-methoxy-6-(3-morpholinopropoxy)quinazolin-4-yloxy)phenyl)urea]	–
< 250 nM	250 to 500 nM	COc1cc2ncnc(Sc3cccc(NC(=O)Nc4cc(C(C)(C)C)on4)c3)c2cc1OCCCS(C)(=O)=O [Ex 64, 1-(5-tert-butylisoxazol-3-yl)-3-(3-(7-methoxy-6-(3-(methylsulfonyl)propoxy)quinazolin-4-ylthio)phenyl)urea]	–
> 1000 nM	> 1000 nM	COc1cc2c(Oc3cccc(NC(=O)Nc4cc(C(C)(C)C)on4)c3)ncnc2cc1OC1CCN(CC(F)F)CC1 [Ex 105, 1-(5-tert-butylisoxazol-3-yl)-3-(3-{7-[1-(2,2-difluoroethyl)piperidin-4-yloxy]-6-methoxyquinazolin-4-yloxy}phenyl)urea]	–
500 to 1000 nM	> 1000 nM	COc1cc2c(Oc3cccc(NC(=O)Nc4cc(C(C)(C)C)on4)c3)ncnc2cc1O[C@H]1CCN(CC(F)(F)F)C1 [Ex 104, (S)-1-(5-tert-butylisoxazol-3-yl)-3-(3-{6-methoxy-7-[1-(2,2,2-trifluoroethyl)pyrrolidin-3-yloxy]quinazolin-4-yloxy}phenyl)urea]	–
250 to 500 nM	> 1000 nM	COc1cc2ncnc(Oc3cccc(NC(=O)Nc4cc(C(C)C)no4)c3)c2cc1OC [Ex 122, 1-(3-(6,7-dimethoxyquinazolin-4-yloxy)phenyl)-3-(3-isopropylisoxazol-5-yl)urea]	–
250 to 500 nM	> 1000 nM	COc1cc2ncnc(Oc3cccc(NC(=O)Nc4cc(C(F)(F)F)n(-c5ccccc5)n4)c3)c2cc1OC [Ex 169, 1-[3-(6,7-dimethoxyquinazolin-4-yloxy)phenyl]-3-[1-phenyl-5-(trifluoromethyl)-1H-pyrazol-3-yl]urea]	–
500 to 1000 nM	> 1000 nM	COCC(C)(C)c1cc(NC(=O)Nc2cccc(Oc3ncnc4cc(OC)c(OC)cc34)c2)on1 [Ex 128, 1-(3-(6,7-dimethoxyquinazolin-4-yloxy)phenyl)-3-(3-(1-methoxy-2-methylpropan-2-yl)isoxazol-5-yl)urea]	–
< 250 nM	< 250 nM	COc1cc2c(Oc3cccc(NC(=O)Nc4cc(C(C)(C)C)on4)c3)ncnc2cc1OC[C@H](O)CN1CCN(C)CC1 [Ex 100, (R)-1-(5-tert-butylisoxazol-3-yl)-3-(3-(7-(2-hydroxy-3-(4-methylpiperazin-1-yl)propoxy)-6-methoxyquinazolin-4-yloxy)phenyl)urea]	–
500 to 1000 nM	> 1000 nM	COc1cc2ncnc(Oc3cccc(NC(=O)Nc4cc(C(F)(F)F)ccn4)c3)c2cc1OC [Ex 141, 1-(3-(6,7-dimethoxyquinazolin-4-yloxy)phenyl)-3-(4-(trifluoromethyl)pyridin-2-yl)urea]	–
> 1000 nM	> 1000 nM	COc1cc2ncnc(Oc3cccc(NC(=O)Nc4ccc(Cl)cc4)c3)c2cc1OC [Ex 175, 1-(4-chlorophenyl)-3-(3-(6,7-dimethoxyquinazolin-4-yloxy)phenyl)urea]	–
250 to 500 nM	> 1000 nM	COc1cc2ncnc(Sc3cccc(NC(=O)Nc4cc(C(C)C)on4)c3)c2cc1OC [Ex 134, 1-(3-(6,7-dimethoxyquinazolin-4-ylthio)phenyl)-3-(5-isopropylisoxazol-3-yl)urea]	–
> 1000 nM	–	COc1cc2nc(Cl)nc(Sc3cccc(NC(=O)Nc4cc(C(C)(C)C)on4)c3)c2cc1OC [Ex 89, 1-(5-tert-butylisoxazol-3-yl)-3-(3-(2-chloro-6,7-dimethoxyquinazolin-4-ylthio)phenyl)urea]	–
< 250 nM	250 to 500 nM	COc1cc2ncnc(Sc3cccc(NC(=O)Nc4cc(C(C)(C)C)on4)c3)c2cc1OCCN1CCS(=O)(=O)CC1 [Ex 71, 1-(5-tert-butyl-isoxazol-3-yl)-3-(3-{6-[2-(1,1-dioxo-thiomorpholin-4-yl)-ethoxy]-7-methoxy-quinazolin-4-ylsulfanyl}-phenyl)-urea]	–
< 250 nM	> 1000 nM	COc1cc2ncnc(Sc3cccc(NC(=O)Nc4cc(C(C)(CF)CF)nn4-c4ccccc4)c3)c2cc1OC [Ex 196, 1-[3-(1,3-difluoro-2-methylpropan-2-yl)-1-phenyl-1H-pyrazol-5-yl]-3-[3-(6,7-dimethoxyquinazolin-4-ylthio)phenyl]urea]	–
< 250 nM	250 to 500 nM	COc1cc2ncnc(Oc3cccc(NC(=O)Nc4cc(C(C)(C)F)on4)c3)c2cc1OC [Ex 136, 1-(3-(6,7-dimethoxyquinazolin-4-yloxy)phenyl)-3-(5-(2-fluoropropan-2-yl)isoxazol-3-yl)urea]	–
> 1000 nM	> 1000 nM	COc1cc2ncnc(Oc3cccc(NC(=O)Nc4cccc(C(F)(F)F)c4)c3)c2cc1OC [Ex 181, 1-(3-(6,7-dimethoxyquinazolin-4-yloxy)phenyl)-3-(3-(trifluoromethyl)phenyl)urea]	–
250 to 500 nM	> 1000 nM	COc1cc2ncnc(Oc3cccc(NC(=O)Nc4cc(C(F)(F)F)nn4C)c3)c2cc1OC [Ex 164, 1-[3-(6,7-dimethoxyquinazolin-4-yloxy)phenyl]-3-[1-methyl-3-(trifluoromethyl)-1H-pyrazol-5-yl]urea]	–
> 1000 nM	> 1000 nM	COc1ccc(NC(=O)Nc2cccc(Oc3ncnc4cc(OC)c(OC)cc34)c2)cc1Cl [Ex 180, 1-(3-chloro-4-methoxyphenyl)-3-(3-(6,7-dimethoxyquinazolin-4-yloxy)phenyl)urea]	–
< 250 nM	500 to 1000 nM	COc1cc2ncnc(Sc3cccc(NC(=O)Nc4cc(C(C)(C)C)on4)c3)c2cc1OCCS(C)(=O)=O [Ex 88, 1-(5-tert-butylisoxazol-3-yl)-3-(3-(7-methoxy-6-(2-(methylsulfonyl)ethoxy)quinazolin-4-ylthio)phenyl)urea]	–
< 250 nM	–	COc1cc2ncnc(Sc3cccc(NC(=O)Nc4cc(C(C)(C)C)nn4-c4ccccc4)c3)c2cc1OC [Ex 154, 1-(3-tert-butyl-1-phenyl-1H-pyrazol-5-yl)-3-(3-(6,7-dimethoxyquinazolin-4-ylthio)phenyl)urea]	–
< 250 nM	250 to 500 nM	COc1cc2ncnc(Oc3cccc(NC(=O)Nc4cc(C5CCCC5)on4)c3)c2cc1OC [Ex 135, 1-(5-cyclopentylisoxazol-3-yl)-3-(3-(6,7-dimethoxyquinazolin-4-yloxy)phenyl)urea]	–
< 250 nM	500 to 1000 nM	COc1cc2ncnc(Oc3cccc(NC(=O)Nc4cc(C(C)(CF)CF)nn4-c4ccccc4)c3)c2cc1OC [Ex 167, 1-[3-(1,3-difluoro-2-methylpropan-2-yl)-1-phenyl-1H-pyrazol-5-yl]-3-[3-(6,7-dimethoxyquinazolin-4-yloxy)phenyl]urea]	–
250 to 500 nM	500 to 1000 nM	COc1cc2ncnc(Oc3cccc(NC(=O)Nc4cc(C(C)C)on4)c3)c2cc1OC [Ex 133, 1-(3-(6,7-dimethoxyquinazolin-4-yloxy)phenyl)-3-(5-isopropylisoxazol-3-yl)urea]	–

SMILES	IC50 [2]	EC50 [3]	Kd [1]
COc1cc2c(Oc3cccc(NC(=O)Nc4cc(C(C)(C)C)on4)c3)ncnc2cc1O[C@@H]1CCNC1 [Ex 98, (R)-1-(5-tert-butylisoxazol-3-yl)-3-(3-(6-methoxy-7-(pyrrolidin-3-yloxy)quinazolin-4-yloxy)phenyl)urea dihydrochloride]	500 to 1000 nM	> 1000 nM	250 to 500 nM
COc1cc2ncnc(Sc3cccc(NC(=O)Nc4cc(C(C)(C)F)no4)c3)c2cc1OC [Ex 187, 1-(3-(6,7-dimethoxyquinazolin-4-ylthio)phenyl)-3-(3-(2-fluoropropan-2-yl)isoxazol-5-yl)urea]	< 250 nM	> 1000 nM	250 to 500 nM
COc1cc2c(Oc3cccc(NC(=O)Nc4cc(C(C)(C)C)on4)c3)ncnc2cc1O[C@H]1CCNC1 [Ex 96, (S)-1-(5-tert-butylisoxazol-3-yl)-3-(3-(6-methoxy-7-(pyrrolidin-3-yloxy)quinazolin-4-yloxy)phenyl)urea dihydrochloride]	250 to 500 nM	> 1000 nM	250 to 500 nM
